# Patent EP0748311B1, “THERAPEUTIC BENZONITRILES” (THE WELLCOME FOUNDATION LIMITED, priority 1994, dated 1995)
# Where two headings read alike, the source gives them in different places.
# Columns and labels:
# HIV-1 (strain 3B) = experiment: HIV assay: reversal of the cytopathic effect of HIV infection in MT4 cells (propidium iodide dye uptake); type: cell-based; conditions: Human immunodeficiency virus 1, 120 h, Anti-HIV-1 activity, day 5 post infection
# Experimental: Anti-HIV activity of compounds of the invention was determined using the method of Averett D.R., J.Virol. Methods, […], 23, 263-276, by measuring the ability of the compound to reverse the cytopathic effect of HIV infection. This was determined by a quantitative assessment of cell growth monitored at the fifth day post infection by a propidium iodide dye uptake test. MT4 cells were incubated with 100XTCID50 of HIV-1 (strain 3B) or HIV-2 (strain ZY) for one hour prior to addition of the compound in six different concentrations varying from 2 to 200 µM. The cells were allowed to incubate for five days at 37°C. On day 5, NP-40, a detergent, was added to a final concentration of 0.5% immediately prior to analysis. Cell number was determined using a method which measures the fluorescence of a dye (propidium iodide) which binds to DNA. Since the amount of DNA is directly proportional to cell number, this fluorescence assay is an indication of cell growth. While uninfected cells double in cell number several times during the five days duration of the assay, HIV-infected cells grow very little, if at all. A compound which reverses the cytopathic effect of HIV would allow for rapid cell growth, approaching that of the mock-infected cells. […]
# [1] = Cytotoxicity: inhibition of cell growth; type: cell-based; conditions: human
# Experimental: Compounds of the invention were tested for the inhibition of growth of human T-cells (Molt 4), B-cells (IM9) and CEM cells by the method of Averett, D.R., J. Virol. Methods, 23, 263-276 (1989). Cells were grown as described in Prus, K.L., et al., Cancer Res., 50(6), 1817-1821 (1990).
# male Lewis rats = experiment: Carrageenan pleurisy assay (4 hour); type: in vivo; conditions: 4 h after carrageenan, relative to solvent (vehicle) control animals; for % INHIBITION CELLS: inflammatory cells (neutrophils) in pleural exudate; for % INHIBITION EDEMA: pleural edema
# Experimental: The antiinflammatory activity of compounds of the invention was determined by the procedure of Vinegar, R. et al., Proc. Soc. Exp. Biol. Med., 1981, 168, 24-32, using male Lewis rats of 150 ± 20 grams. The carrageenan dose was 0.075 mg/rat. Pleural exudate was harvested four hours after injection of carageenan. Acute antiinflammatory activity was determined by inhibition of pleural edema and infammatory cells (neutrophils) from a negative (vehicle) control group.
# Acute Anti-inflammatory Activity of Compounds in the 4 Hour Carrageenan Pleurisy Assay in Rats
IC50 (HIV-1 (strain 3B)),Compound,"viability at 100 µM ([1]; cem cells, read-out: % of Cells Surviving at 100 µM)","viability at 100 µM ([1]; im9 cells, read-out: % of Cells Surviving at 100 µM)","viability at 100 µM ([1]; molt 4 cells, Molt4, read-out: % of Cells Surviving at 100 µM)",% INHIBITION CELLS (male Lewis rats; @ 25 MG/KG (IP)),% INHIBITION EDEMA (male Lewis rats; @ 25 MG/KG (IP)),% INHIBITION CELLS (male Lewis rats; @ 50 MG/KG (PO)),% INHIBITION EDEMA (male Lewis rats; @ 50 MG/KG (PO))
920 ± 40 nM,"COc1cccc(S(=O)(=O)c2cccc(N)c2C#N)c1 [Example 2, 2-Amino-6-[(3-methoxyphenyl)sulfonyl]benzonitrile]",,,,,,,
14 ± 1 nM,"Cc1cc(C)cc(S(=O)(=O)c2cccc(N)c2C#N)c1 [Example 4, 2-Amino-6-[(3,5-dimethylphenyl)sulfonyl]benzontrile]",70%,97%,91%,0%,5%,29%,31%
